Experimental findings from ChEMBL document CHEMBL1201862, “PubChem BioAssay data set” (2004) are described below.

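Cells were grown in 96-well plates and exposed to each compound for 48 hours at five concentrations; endpoints were interpolated linearly between bracketing concentrations, or set to the highest concentration if not reached. At the GI50, growth is halved.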 Activity calls are given as the source filed them. Rule as the data show it: active = GI50 up to about 1.1 µM and inactive = higher.

Test systems include UACC-62; NCI-H226; OVCAR-3; ACHN; CAKI-1; Malme-3M; OVCAR-4; IGROV-1; OVCAR-8; SR; 786-0; UACC-257; NCI-H23; NCI-H522; HL-60; SK-MEL-5; NCI/ADR-RES; PC-3; MDA-MB-231.
Assay in all cases: DTP human tumour cell line panel, 48 h

With `COC(=O)C1=C(C(=O)OC)C23CC4CCC2(C(=O)C1O3)C4(C)C` (stereo not given), the GI50 was 73.1 µM (inactive) with UACC-62; > 100 µM (inactive) in the test on NCI-H226; > 100 µM (inactive) in the test with OVCAR-3; > 100 µM (inactive) with ACHN; > 100 µM (inactive) with CAKI-1; > 100 µM (inactive) in the test with Malme-3M. Besides, the GI50 is > 100 µM (inactive) with OVCAR-4; > 100 µM (inactive) in the test with IGROV-1; > 100 µM (inactive) in the test with OVCAR-8; 26.7 µM (inactive) in the test with SR; > 100 µM (inactive) with 786-0; > 100 µM (inactive) in the test with UACC-257. The GI50 in the test with NCI-H23 was > 100 µM (inactive); in the test on NCI-H522, 22 µM (inactive); in the test on HL-60, 21.2 µM (inactive); in the test on SK-MEL-5, > 100 µM (inactive).
As for `N#CC(NNC(=O)c1ccccc1O)c1ccccc1` (stereo not given), the GI50 in the test on UACC-62 is 0.398 µM (active); in the test with NCI-H226, 5.87 µM (inactive); with OVCAR-3 it was 3.12 µM (inactive); in the test on ACHN, 0.479 µM (active); in the test on CAKI-1, 2.91 µM (inactive); in the test on Malme-3M it was 4.75 µM (inactive). Further, the GI50 in the test on OVCAR-4 was 3.85 µM (inactive); in the test with IGROV-1, 1.13 µM (inactive); in the test with OVCAR-8, 2.81 µM (inactive); in the test on SR, 0.689 µM (active); in the test with 786-0 it was 2.5 µM (inactive); in the test on UACC-257 it was 5.94 µM (inactive). Besides, the GI50 with NCI-H23 was 1.72 µM (inactive); in the test with NCI-H522, 10.2 µM (inactive); in the test on HL-60, 1.8 µM (inactive); with SK-MEL-5, 16.1 µM (inactive).
`CCN(CC)CCNC(=O)c1nn(C)c(=S)[nH]c1=S`: the GI50 in the test on UACC-62, in the test with NCI-H226, in the test on OVCAR-3, in the test with ACHN, in the test with CAKI-1 and with Malme-3M was > 100 µM (inactive) throughout. Also, the GI50 in the test with OVCAR-4, with IGROV-1, in the test with OVCAR-8, in the test on SR, with 786-0 and in the test with UACC-257 was > 100 µM (inactive) throughout. Further, the GI50 with NCI-H23, in the test with NCI-H522, in the test with HL-60 and with SK-MEL-5 was > 100 µM (inactive) in each case.
Regarding `O=C1C2=C(C(c3ccccc3)=C1c1ccccc1)c1ccccc1C1(c3ccccc3)C2=C(O)C(c2ccccc2)=C1c1ccccc1` (stereo not given), the GI50 in the test with UACC-62, in the test with NCI-H226, in the test on OVCAR-3, in the test with ACHN, with CAKI-1 and in the test on Malme-3M was > 100 µM (inactive) each time. The GI50 in the test on OVCAR-4, with IGROV-1, in the test with OVCAR-8, in the test with SR, with 786-0 and in the test on UACC-257 was > 100 µM (inactive) each time. For the same molecule, the GI50 in the test with NCI-H23, in the test with NCI-H522, in the test on HL-60 and with SK-MEL-5 was > 100 µM (inactive) throughout.
As for `CC[n+]1c(/C=C/c2ccc(N(CCCl)CCCl)cc2)ccc2cc(I)ccc21`, the GI50 was 0.507 µM (active) in the test on UACC-62; 1.24 µM (inactive) in the test with NCI-H226; 0.553 µM (active) in the test on OVCAR-3; 2.71 µM (inactive) with ACHN; 2 µM (inactive) in the test with CAKI-1; 0.6 µM (active) in the test on Malme-3M. For the same molecule, the 50% growth inhibitory concentration (GI50) is 0.608 µM (active) with OVCAR-4; 0.587 µM (active) in the test on IGROV-1; 0.771 µM (active) in the test on OVCAR-8; 0.659 µM (active) in the test with SR; 1.24 µM (inactive) in the test on 786-0; 0.514 µM (active) in the test with UACC-257. Further, the GI50 in the test with NCI-H23 is 1.23 µM (inactive); in the test with NCI-H522 it was 0.312 µM (active); with HL-60, 0.217 µM (active); in the test with SK-MEL-5 it was 0.552 µM (active).
For `O=C(/C=C/c1ccccc1)NC1C=Nc2ccc(Cl)cc2NC1=O` (stereo not given), the GI50 with UACC-62 was 26.2 µM (inactive); in the test with NCI-H226 it was 30.8 µM (inactive); with OVCAR-3, 19.5 µM (inactive); in the test with ACHN, 24.1 µM (inactive); in the test on CAKI-1 it was 22.6 µM (inactive); in the test on Malme-3M, 26.9 µM (inactive). In addition, the GI50 in the test on OVCAR-4 was 20.5 µM (inactive); in the test on IGROV-1, 15 µM (inactive); in the test on OVCAR-8 it was 29.5 µM (inactive); in the test on SR, 7.01 µM (inactive); with 786-0 it was 23.2 µM (inactive); with UACC-257, 26.4 µM (inactive). The GI50 in the test with NCI-H23 was 27.5 µM (inactive); in the test on NCI-H522, 9.64 µM (inactive); in the test with HL-60, 5.3 µM (inactive); in the test with SK-MEL-5 it was 16.5 µM (inactive).
As to `CCOC(=O)N/N=C(/N)Cc1ccc(Cl)cc1`, the GI50 with UACC-62, in the test with NCI/ADR-RES, with OVCAR-3, in the test with ACHN, with OVCAR-4 and in the test with PC-3 was > 100 µM (inactive) each time. Also, the GI50 in the test with IGROV-1, in the test on MDA-MB-231, in the test with OVCAR-8, in the test on 786-0, in the test on UACC-257 and with NCI-H23 was > 100 µM (inactive) throughout. Besides, the GI50 in the test on NCI-H522 and with SK-MEL-5 was > 100 µM (inactive) each time.
Regarding `O=C(COC(=O)c1cccc2c(=O)c3ccccc3[nH]c12)Nc1ccc(C(=O)O)cc1`, the GI50 was 71 µM (inactive) with UACC-62; > 10 µM (inactive) in the test with NCI-H226; 50 µM (inactive) in the test with OVCAR-3; > 100 µM (inactive) in the test with ACHN; > 100 µM (inactive) with CAKI-1; > 100 µM (inactive) in the test with Malme-3M. Further, the GI50 is > 100 µM (inactive) with OVCAR-4; 99.1 µM (inactive) with IGROV-1; 78.7 µM (inactive) with OVCAR-8; 30.8 µM (inactive) in the test with SR; > 100 µM (inactive) in the test with 786-0; > 100 µM (inactive) in the test on UACC-257. The GI50 with NCI-H23 is > 100 µM (inactive); in the test on NCI-H522 it was 43.7 µM (inactive); in the test with HL-60, 94 µM (inactive); in the test on SK-MEL-5, > 100 µM (inactive).
On to `O=C(/C=C\c1cccc2ccccc12)c1cccc2ccccc12`, for which the GI50 in the test with UACC-62 was 9.04 µM (inactive); in the test on NCI-H226 it was 9.16 µM (inactive); in the test with OVCAR-3, 7.91 µM (inactive); in the test on ACHN, 11.6 µM (inactive); in the test with CAKI-1, 8.07 µM (inactive); in the test with Malme-3M, 15.9 µM (inactive). Besides, the GI50 with OVCAR-4 is 6.37 µM (inactive); in the test with IGROV-1 it was 8.17 µM (inactive); in the test on OVCAR-8, 5.82 µM (inactive); in the test with SR, 3.25 µM (inactive); in the test with 786-0, 4.4 µM (inactive); with UACC-257, 16 µM (inactive). Moreover, the GI50 in the test on NCI-H23 was 5.93 µM (inactive); with NCI-H522 it was 7.64 µM (inactive); in the test with HL-60, 3.64 µM (inactive); with SK-MEL-5, 12.7 µM (inactive).
In the case of `CCSC1=C(C)N(/C=N/C(C)(C)C)CC1`, the GI50 with UACC-62, with NCI-H226, with OVCAR-3, with ACHN, in the test on CAKI-1 and in the test with Malme-3M was > 100 µM (inactive) in each case. For the same molecule, the GI50 in the test on OVCAR-4, in the test with IGROV-1, in the test with OVCAR-8, in the test on SR, in the test on 786-0 and with UACC-257 was > 100 µM (inactive) throughout. For the same molecule, the GI50 in the test on NCI-H23, in the test with NCI-H522, with HL-60 and in the test on SK-MEL-5 was > 100 µM (inactive) in each case.
On to `O=C1Oc2cc3c(c4cccc1c24)OCN(c1ccc(Cl)cc1)C3`, for which the GI50 was 4.79 µM (inactive) in the test with UACC-62; > 100 µM (inactive) with NCI-H226; 12 µM (inactive) in the test with OVCAR-3; 3.13 µM (inactive) with ACHN; 38.8 µM (inactive) with CAKI-1; 26.4 µM (inactive) in the test on Malme-3M. Besides, the GI50 in the test on OVCAR-4 is 28.1 µM (inactive); in the test with IGROV-1, > 100 µM (inactive); with OVCAR-8, 11.7 µM (inactive); in the test on SR it was 8.79 µM (inactive); in the test on 786-0, 14.3 µM (inactive); with UACC-257 it was 34.9 µM (inactive). Moreover, the GI50 in the test on NCI-H23 is 18.8 µM (inactive); in the test on NCI-H522, 15.2 µM (inactive); in the test on HL-60, 4.82 µM (inactive); in the test on SK-MEL-5, 1.37 µM (inactive).
In the case of `CC(O)C1OC(n2ccc(=O)[nH]c2=O)CC1n1cncn1` (stereo not given), the GI50 in the test on UACC-62 is > 100 µM (inactive); in the test with NCI-H226 it was 11.8 µM (inactive); in the test with OVCAR-3, > 100 µM (inactive); in the test with ACHN it was > 100 µM (inactive); in the test with CAKI-1, > 100 µM (inactive); in the test with Malme-3M, > 100 µM (inactive). The GI50 with OVCAR-4, in the test with IGROV-1, with OVCAR-8, in the test with SR, with 786-0 and in the test with UACC-257 was > 100 µM (inactive) in each case. Also, the GI50 with NCI-H23, in the test on NCI-H522, in the test on HL-60 and in the test with SK-MEL-5 was > 100 µM (inactive) each time.

For orientation: GI50 means the concentration giving 50% growth inhibition.
